The conditions of data set [1]: cited from earlier work.
Data set [2] is classed as in vivo, human. The protocol:
The insulin-FDKP formulation is administered to the subjects by oral inhalation using a MEDTONE® dry powder inhaler (MannKind Corp.). Methods and results below are described in terms of the Original Protocol (OP), which includes the meal challenge in 18 subjects with three treatments (EXUBERA®, lispro and TI) and Amendment 1 (A1), which includes 12 subjects treated with only TI and lispro. […] The subjects were screened and evaluated before, during and after the experiments and their data analyzed as described below. Subjects were selected based on several key inclusion criteria, including, male and female, having ≥18 and ≤70 years of age with clinical diagnosis of type 2 diabetes mellitus for ≥12 months. The subjects selected for the study also had stable anti-diabetic regimen with insulin for the previous 3 months; HbA1c ≤8.5%; Body Mass Index (BMI) between ≤34 kg/m^2 and ≥25 kg/m^2; urine cotinine ≤100 ng/mL; […] Criteria for exclusion from the study also included unstable diabetes control and/or evidence of serious complications of diabetes (e.g., autonomic neuropathy); serum creatinine >1.8 mg/dL in female subjects and >2.0 mg/dL in male subjects. Other clinically important pulmonary disease was confirmed by documented history or pulmonary function testing. Under OP, the study was planned to be a randomized, open label, 3-way cross-over study. […] At this analysis all patients at least had completed the meal challenge visits and only those data have been used. The screening visit(s) (V1) occurred 1 to 21 days before the first treatment visit (V2) with 7 to 21 days elapsing between treatment-visits (V2, V3, and V4) for the meal challenge test. A minimum of 8 weeks elapsed between V4 and the next treatment visit, (V6). An additional safety visit (V5) was scheduled 1-3 days prior to the first of 3 glucose clamp procedures (V6). The glucose clamp procedure occurred at 3 visits, Visits V6, V7, and V8, with 7 to 21 days elapsing between the visits. […] Each treatment visit during the meal challenge had the subjects hospitalized in the clinical unit the night before initiation of treatment. […] Each subject followed the same randomization order for the glucose-clamp procedures as for the meal challenge tests. During the study, periodic blood draws for determination of pharmacokinetic and/or pharmacodynamic parameters, and safety were taken beginning at 12 hours prior to onset of the treatment regimens and meal challenge, and thereafter for a period of 8 hours. […] Meal Challenge Test: BOOST PLUS® (12 fl. oz.) consisting of 67.5 g carbohydrate, 21 g protein, 21 g fat, energy content 540 kcal was used for the meal challenge test. The BOOST PLUS® was enriched with U-^13C-glucose to determine the amount of absorbed glucose. Concurrent enriched continuous infusion of 6,6-^2H2 glucose was used to assess endogenous glucose production EGP. […] Under OP, the dose for insulin lispro was selected based on information obtained from the regulatory label. The dose selected for EXUBERA® was obtained by means of back calculation of the most commonly used dose information presented to the FDA Advisory Committee in the EXUBERA® Briefing Document. […] Blood glucose concentrations were measured at regular intervals from arterialized venous blood samples. The amount of orally absorbed glucose was estimated by determination of U-^13C-glucose. EGP was determined by measurement of 6,6-^2H2 glucose applying the modified calculations for the non-steady state ([…], and D. T. Stein. Calculating glucose fluxes during meal tolerance test: a new computational approach. Am. J. Physiol Endocrinol. Metab 293 (2):[…]-[…], 2007). C-peptide concentrations were measured pre- and post-dose to assess endogenous insulin secretion. In addition, glucagon and free fatty acid concentrations were also determined.

The format of data set [3] is in vivo, human. As to conditions: 10 U lispro. The protocol:
Following the completion of the meal challenge, the data was analyzed as per the statistical analysis plan. […] The study was amended (A1) and included 12 subjects (10 were reenrolled from the first meal challenge), and only two treatments, which were 10 U lispro and 60 and 90 U TI. The doses were selected based on the relative bioavailability observed following the first meal challenge (OP), where under an assumption of linear kinetics, 10 U lispro and 60 U TI would result in similar exposure. The 90 U dose group was included to assess the effect of the highest dose group of TI studied in Phase 3 trials. Six of the 12 subjects received 60 U TI and the other 6 subjects received 90 U TI. All 12 subjects received 10 U lispro in a crossover fashion. […] Blood glucose concentrations were measured at regular intervals from arterialized venous blood samples. […] EGP was determined by measurement of 6,6-^2H2 glucose applying the modified calculations for the non-steady state ([…], and D. T. Stein. Calculating glucose fluxes during meal tolerance test: a new computational approach. Am. J. Physiol Endocrinol. Metab 293 (2):[…]-[…], 2007). C-peptide concentrations were measured pre- and post-dose to assess endogenous insulin secretion. In addition, glucagon and free fatty acid concentrations were also determined.

Data set [4] can be described thus: 52-week clinical trial in type 1 diabetes: basal insulin + prandial TI Inhalation Powder vs basal insulin + SC insulin aspart. The class given is in vivo, human. From the text: A Prospective, Multi-Center, Open-Label, Randomized, Controlled Clinical Trial Comparing the Efficacy and Safety in Subjects with Type 1 Diabetes Receiving SC Basal Insulin and Prandial Inhalation of Insulin-FDKP Versus SC Basal and Prandial Insulin Over a 52-Week Treatment Period and a 4-Week Follow-up
This was a prospective, multi-country, multicenter, open label, randomized, controlled clinical trial comparing glycemic control in subjects with type 1 diabetes receiving basal insulin and prandial insulin-FDKP (TI) Inhalation Powder (TI Inhalation Powder group) with subjects receiving basal insulin and SC rapid-acting insulin aspart (comparator group). This study included a 52-week treatment phase and a 4-week follow-up phase. During the 4-week follow-up phase, pulmonary function and select clinical laboratory assessments were scheduled.
The study began with enrollment at Week −3. Subjects received a complete battery of safety and eligibility assessments, including HbA1c and fasting plasma glucose (FPG).
At Week −1, subjects were randomized to one of the following 2 treatments: • Basal insulin+prandial TI Inhalation Powder • Basal insulin+prandial SC rapid-acting insulin
At Week −1, subjects again completed the first three components of the Insulin Treatment Questionnaire (ITQ) for the purpose of assessing test-retest reliability only). After completing the questionnaire, subjects randomized to the TI Inhalation Powder group were trained on the MEDTONE® Inhaler using TECHNOSPHERE®/insulin (insulin-FDKP) inhalation powder; subjects in the comparator group were trained in the use of the NOVOLOG® pens; all subjects were trained in administration of LANTUS®. Additionally, all subjects were trained on a blood glucose monitoring (HBGM) meter provided at the beginning of the trial and diary and received diabetes education. Any training was repeated at Week 0, if needed.
At the beginning of the treatment phase, subjects had several titration/dose evaluation visits to adjust insulin therapy. Titration visits occurred once a week for the first 4 weeks. During Weeks 4 through 10, there were three telephone “visits” (at Week 6, Week 8, and Week 10) to titrate dose, if necessary. However, dose titration was allowed throughout the trial.
All subjects completed a 7-point blood glucose profile on any 3 days during the week immediately preceding each visit from Week 0 to Week 52. The 7 time points included samples from before breakfast and 2 hours after breakfast, before the mid-day meal and 2 hours after the mid-day meal, before the evening meal and 2 hours after the evening meal and at bedtime (7 time points a day, over 3 days). These blood glucose (BG) values were recorded in the HBGM diary that was collected at clinic visits. The diaries for Weeks 4 through 10 (during dose titration) which were discussed over the telephone were collected at the next office visits.
A meal challenge test was performed at Week 4 (during dose titration), Week 26, and Week 52. Meal challenge venous blood sampling times were: −30, 0, 30, 60, 90, 105, 120, 180, 240, 300, and 360 minutes. Blood glucose (BG) was also measured using HBGM glucose meters to aid the Investigator in treatment decisions and values were obtained at −30, 0, 60, and 120 minutes during the meal challenge.
Treatments for glycemic control used in the trial were the following: prandial insulin-FDKP (TI) inhalation powder, prandial insulin aspart, and basal insulin glargine. Subjects assigned to the TI Inhalation Powder group (TI Inhalation Powder in combination with basal insulin therapy) received sc basal insulin glargine (LANTUS®) once daily (at bedtime) and inhaled TI Inhalation Powder 3 to 4 times a day, immediately before main meals or a snack as based upon clinical need. Adjustment of the TI Inhalation Powder dose and frequency of use to greater than 3 times a day was at the discretion of the Investigator. […]

[5] abbreviates: 45 U insulin-FDKP, 4 mg EXUBERA, 12 U lispro, FIG. 6.
The mark [6] stands for this setting: 52 weeks, + basal insulin glargine.
Where [7] appears, read: 52 weeks, + basal insulin, baseline 187.6 (SD 85.1) TI, 180.8 (SD 86.9) comparator.

Where two headings read alike, the source gives them in different places.

The values below come from patent US12303554B2, “Use of ultrarapid acting insulin” (MannKind Corporation, priority 2008, dated 2025).

For the substance “insulin glulisine: rapid acting insulin analog”, in data set [1] (type 1 and type 2 diabetes populations, prescribing information), the “Range of Tmax” value is 40 to 120 min.

For the substance “Regular human insulin: regular human insulin preparations for subcutaneous injection, considered short acting”, the “Duration of significant elevation or activity” value in data set [1] (subcutaneous injection) was 10 to 12 h.

On to “insulin lispro: rapid acting insulin analog, subcutaneously administered (Eli Lilly & Co.)”, for which the “Time post-treatment at which (further) glucose infusion was needed to remain above 90 mg/dL” value in data set [2] (45 U insulin-FDKP inhaled, 4 mg EXUBERA inhaled, 12 U lispro sc at onset of meal) was ~3 h. The “Time of peak inhibition of endogenous glucose production after treatment” value in data set [2] (45 U insulin-FDKP, 4 mg EXUBERA, 12 U lispro, FIG. 5) is “about 80 minutes”. For the same substance, in data set [2] (setting [5]), the “Time of peak glucose disappearance rate after dosing” value is on record as “about 120 minutes” and the “Time post dosing at which glucose disappearance rate became substantial / departed from baseline” value is recorded as “about 30 minutes”. For the same substance, the “Total insulin exposure, greater than following 45 U insulin-FDKP (TI) or 4 mg EXUBERA” value in data set [2] (human, in vivo) is reported as “approximately 40%”. Further, the “Insulin concentration tmax (median)” value in data set [2] (human, in vivo, 4 mg) came out at 75 min. The “Time of peak glucose disappearance rate after dosing” value in data set [3] (60 U and 90 U insulin-FDKP, FIG. 11) was “about 100 minutes”. In data set [3] (60 U or 90 U insulin-FDKP (two treatments, dose assignment not stated), FIG. 10), the “Time of peak inhibition of endogenous glucose production following dosing” value was “about 100 minutes”.

As for insulin aspart, in data set [4] (setting [6]), the “Percentage of subjects whose HbA1c level decreased to ≤6.5%” value turned out to be 7.31%, the “Percentage of subjects whose HbA1c level decreased to ≤7.0%” value was 15.98% and the “Percentage of subjects whose HbA1c level decreased to ≤8.0%” value is reported as 56.16%. In addition, in data set [4] (setting [7]), the “Mean FPG at the end of the treatment period” value is reported as 161.3 (SD 68.2) mg/dL and the “Mean decrease in fasting plasma glucose (FPG) over the treatment period” value is given as 23.4 (SD 103.1) mg/dL. Also, the “HbA1c at Week 14” value in data set [4] (+ basal insulin glargine, baseline 8.41 (SD 0.92) TI arm, 8.48 (SD 0.97) insulin aspart arm) is 8.07 (SD 1.09) %. Moreover, in data set [4] (over the 52-week treatment period, + basal insulin), the “Average body weight gain” value came out at 1.4 kg. Further, the “Median Tmax” value in data set [1] (subjects with type 1 diabetes, prescribing information) was 40 to 50 min.
